Experimental data reported in patent US10716771B2, “Pharmaceutical composition for preventing or treating immune diseases or inflammatory diseases, containing biguanide derivative compound as active ingredient” (THE CATHOLIC UNIVERSITY OF KOREA INDUSTRY-ACADEMIC …, priority 2013, dated 2020).

Legend:
IL-17 = IL-17 generation in mouse spleen cells under Th17 differentiation, sandwich ELISA; type: cell-based; conditions: mouse spleen cells under Th17 stimulating condition, 3 days
Method: In order to verify whether the biguanide derivative compound of the present invention has the activity of […] generation of IL-17 as an inflammatory cytokine in a Th17 cell which is a pathogenic cell, an expression degree of IL-17 was measured by an ELISA assay.
(§1) Spleen cells were obtained from a normal mouse of C57BL/6 (Orient Company, Korea). That is, the tissue of the spleen extracted from the mouse was finely grinded by using a teasing slide and then erythrocytes in the spleen were removed by an erythrocyte hemolysis solution. Thereafter, a PBS buffer solution was added, centrifuged, and washed to obtain spleen cells.
1×10^6 of the spleen cells from the mouse prepared through Example <2-1> were divided in a 24-well plate coated with […] of anti-CD3 antibody and simultaneously treated with 1 μg/mL of anti-CD28 antibody, 2 ng/ml of TGF-β, 20 ng/ml of IL-6 20 ng/ml, 2 μg/ml of anti-IL-4, and 2 μg/ml of anti-IFNr as a condition capable of stimulating Th17 cells, and then the cells were incubated for 3 days to induce the differentiation of the Th17 cells. […]
In order to measure an amount of the generated IL-17 cytokine, a supernatant of the incubated cells was collected and the IL-17 expression degree was examined by using a sandwich ELISA. […] Thereafter, a PNPP/DEA solution was added and colored, and then the absorbance was measured at a wavelength of 405 nm.

TNF-α = TNF-α generation in LPS-treated mouse spleen cells, ELISA; type: cell-based; conditions: 2, 20, 200 μM with LPS 100 ng/ml, 3 days; compared with only LPS
Method: as §1
Since it is known that Metformin used as the diabetes therapeutic agent currently on the market has a slight effect of blocking TNF-α as the inflammatory cytokine, in order to verify whether the biguanide derivative compound of the present invention has activity of reducing the generation of TNF-α, the expression degree of TNF-α was measured by an ELISA assay. […]
In order to measure an amount of the generated TNF-α cytokine, a supernatant of the incubated cells was collected and the TNF-α generation degree was examined by using an ELISA. […] Thereafter, a PNPP/DEA solution was added and colored, and then the absorbance was measured at a wavelength of 405 nm.

Q: What does the source list for `CC(C)NC(=N)NC(=N)N` [SD-000196, 1-isopropylbiguanide]?
A: IL-17 generated amount, dependence on treatment concentration (IL-17; 2 μM, 20 μM and 200 μM): reduced depending on the treatment concentration; generated amount of IL-17 (IL-17; 200 μM, sandwich ELISA): completely suppressed

Q: `N=C(N)NC(=N)Nc1ccc(F)cc1F` [SD-000217, 1-(2,4-difluorophenyl)biguanide] was tested. Which “generated amount of TNF-α” value (TNF-α) did it give?
A: very significantly reduced

Q: For `NC(N)=N/C(N)=N/c1cccc(F)c1` [SD-000216, 1-(3-fluorophenyl)biguanide], which “generated amount of TNF-α” value (TNF-α) is on record?
A: very significantly reduced
